Bridge positions count the residues as written; N and C are the ends. Peptide text beside a SMILES is read from it.
Legend:
[1] = molecular target: T1, mTEAD4 (Mus musculus, UniProt Q62296); assay: SPR binding to immobilised mTEAD4; conditions: mTEAD4 amine-coupled on CM5, multi-cycle, steady-state fit 1:1 model, 10 mM HEPES 150 mM NaCl 0.05% Tween-20 pH 7.4, 0.3% DMSO, 20 °C, Fig. 1 values n = 1 replicate
T1 construct: Mouse TEAD4(210–427) cDNA fused with a 6x His-tag and a 3C protease cleavage site; 6x His-tag; 3C protease cleavage site; made in house; host or cells: E. coli BL21 DE3 RIL(K+)
T1 sequence (Q62296 210-427): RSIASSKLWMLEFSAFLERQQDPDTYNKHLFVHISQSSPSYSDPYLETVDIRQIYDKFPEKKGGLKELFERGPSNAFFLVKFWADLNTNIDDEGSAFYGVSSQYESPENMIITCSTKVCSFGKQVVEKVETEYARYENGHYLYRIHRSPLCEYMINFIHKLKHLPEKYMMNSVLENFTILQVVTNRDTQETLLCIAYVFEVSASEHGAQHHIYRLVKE
In short: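 Proteins amine-coupled (NHS/EDC) to CM5 chips from 10 mM MES pH 6.4; running buffer 10 mM HEPES, 150 mM NaCl, 0.05% Tween-20, pH 7.4, 20 °C, 30 µL min^−1. Multi-cycle kinetics: seven threefold analyte dilutions from 30 µM, 45 s contact, 6-min dissociation, reference-surface subtracted.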

[2] = test system: RKO cells; assay: Sub-cellular (cytoplasmic, nuclear) peptide concentration in RKO cells by UPLC-MS; conditions: for Sub-cellular drug content, Cytoplasm, Measured concentration / Sub-cellular drug content, Cytoplasm, nMol / Sub-cellular drug content, Nuclear, Measured concentration / Sub-cellular drug content, Nuclear, nMol / Sub-cellular drug content, Cytoplasm, pMol.mg-1 / Sub-cellular drug content, Nuclear, pMol.mg-1: 25 µM compound, n = 2; for Sub-cellular drug content, Cytoplasm, pMol.mg-1 / Sub-cellular drug content, Nuclear, pMol.mg-1: per mg protein; for Cytoplasmic concentration of peptide: cytoplasmic fraction; for Nuclear concentration of peptide: nuclear fraction; for Cytoplasmic concentration, raw data / Nuclear concentration, raw data: sheet Figure 3c, 25 µM unlabelled peptide; for Intracellular concentration: mass spectrometry
Procedure: Peptides were incubated in RKO cells (ATCC, #CRL-2577) as follows: Experiment 1: RKO cells were incubated in 25 µM compound for 90 min and 24 h. Experiment 2: RKO cells were incubated in 25 µM for 30 min or 72 h. Following peptide incubation, the cells were washed twice with PBS, trypsinized and pelleted. The pellets were lysed in RIPA buffer (Perkin Elmer) for total lysis, or CelLytic NuCLEAR Extraction Kit (SIGMA) for subcellular fractionation. Total protein quantification BCA (Pierce) was performed prior to MS analysis to normalize sample data. Total and fractionated cell lysates were analysed by quantitative UPLC-MS utilizing a Waters Xevo TQ-XS (WBA0259) and an Acquity UPLC system from Waters consisting of Sample Manager (M16UFL953M), Acquity PDA (F17UPD457A), Column Oven (E17CMP703G) and Binary Solvent Manager (E17BUR621G). […] Chromatograms of the samples were treated similarly, and by linear regression (1/x) an in-cell concentration was established in the re-suspended cell lysate using the Waters MassLynx TargetLynx^TM product.

[3] = molecular target: T2, GST-hTEAD1 / biotin-VGL4 (Homo sapiens, UniProt P28347); assay: Competition pull-down of GST-hTEAD1 with immobilised biotin-VGL4; format: biochemical; conditions: GST-hTEAD1 1 µM, peptide 50 and 200 µM, biotin-VGL4 on streptavidin beads, 2.5 h, SDS-PAGE, n = 1
T2 construct: CDNA of hTEAD1(209–426) fused with an N-terminal GST tag; made in house; host or cells: Escherichia coli BL21 DE3 RIL(K+); bait peptide synthetic
T2 sequence (P28347 209-426): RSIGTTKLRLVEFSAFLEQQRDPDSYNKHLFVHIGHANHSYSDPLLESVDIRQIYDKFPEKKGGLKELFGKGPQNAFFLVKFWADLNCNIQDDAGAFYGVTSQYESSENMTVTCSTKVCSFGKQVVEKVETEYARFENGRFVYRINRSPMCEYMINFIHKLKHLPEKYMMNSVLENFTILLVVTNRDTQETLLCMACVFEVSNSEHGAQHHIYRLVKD
Procedure: Beads were then extensively washed with the incubation buffer followed by protein elution after boiling the beads at 95 °C for 10 min in 25 µL of SDS loading buffer. SDS PAGE was performed using standard methods and the gel was visualized after Coomassie staining with a Li-COR Fc Imager.

[4] = test system: RKO cells; assay: Wound closure assay; format: cell-based; conditions: c = 30 µM, 48 h treatment
Procedure: Ca. 100,000 RKO cells were seeded per well in a transparent ImageLock 96-well plate (#4379, Essen Bioscience) and treated with the samples the next day. Wound Healing Assay was performed using the IncuCyte® ZOOM system and the WoundMaker™ device (both Essen Bioscience). The scratch was performed according to manufacturer’s protocol and images were acquired every 2 h. Image-based analysis of wound closure was conducted using the IncuCyte ZOOM 2016B software (Essen Bioscience). Confluency within the wound area was normalized to the confluency at the time of scratch preparation and plotted using GraphPad Prism 6.

[5] = molecular target: T3, GST-hTEAD1 (Homo sapiens, UniProt P28347); assay: SPR binding to immobilised GST-hTEAD1; conditions: GST-hTEAD1 amine-coupled on CM5, multi-cycle, steady-state fit 1:1 model, 10 mM HEPES 150 mM NaCl 0.05% Tween-20 pH 7.4, 0.3% DMSO, 20 °C, Fig. 1 values n = 1 replicate
T3 construct: CDNA of hTEAD1(209–426) fused with an N-terminal GST tag; made in house; host or cells: Escherichia coli BL21 DE3 RIL(K+)
T3 sequence (P28347 209-426): as above
Procedure: Sensor chips Series S CM5 (Research grade) were obtained from GE Healthcare. Prior to use, the sensor chips were equilibrated at room temperature for 15 min to prevent water condensation on the detector side of the sensor chip surface. A running buffer was prepared composed of 10 mM HEPES, 150 mM NaCl, and 0.05% (w/v) Tween-20, pH 7.4, and the system was equilibrated at 20 °C using a flow rate of 30 µL min^−1 after docking of the sensor chip. Ligand binding experiments have been performed applying the concept of multi-cycle kinetics. A contact time of 45 s was selected, followed by a 6-min dissociation phase to allow for complete dissociation of the analyte prior to the next cycle. […] Typically, seven concentrations of the analytes have been examined applying a threefold dilution pattern with 30 µM as top concentration. For the analysis, five running buffer blanks were injected to equilibrate the instrument. […] The carboxyl-dextran surface was activated for 7 min with 0.05 M NHS and 0.2 M EDC, followed by an injection of the proteins in 10 mM MES pH 6.4 at a concentration of 30–50 µg mL^−1. […] This was followed by a deactivation of the residual esters by injecting a solution of 0.5 M ethanolamine pH 8.0 for 7 min before engaging in ligand binding experiments. Reference surfaces were prepared accordingly, omitting the injection of protein over the activated reference surface.

[6] = test system: rat heart cells; assay: Cell toxicity assessment on rat heart cells in culture; conditions: c(peptide) = 10 µM
Procedure: whole heart cells monitored by fluorescence microscopy after 90 minutes treatments (scale bar: 25 µm), number of […]
4E as well as control compounds (SB203580, CHIR99021) on rat heart cells in culture (c(peptide) = 10 µM). Number of independent biological replicates: n = 6, error bars = SEM. […]
cytometry analysis of live cells after 90 min incubation at 5 µM: Representative histogram plot, (-) DMSO control). Source data are provided as a Source Data file.
(1 picture or pasted object on this page, not shown here)

[7] = test system: YAP–TEAD interaction; assay: Proximity ligation assay (PLA) in RKO cells; format: cell-based; conditions: 24 h incubation, c = 30 µM
Procedure: Ca. 5000 RKO cells were seeded per well in black 96-well plates with glass bottom (#5241-20, MoBiTec) and treated with the peptides or DMSO as vehicle control. After 24 h, the cells were fixed for 10 min using 4% paraformaldehyde (#UN2209, AppliChem) in PBS prior to permeabilization with 0.1% Triton X-100 (#39795.02, Serva) in PBS for 10 min. […] The cells were treated with the corresponding PLA probes (donkey anti-rabbit PLUS, #DUO92002, dilution 1:5; donkey anti-mouse MINUS, #DUO92004, dilution 1:5, Sigma-Aldrich) and with the Duolink In Situ Detection Orange Kit (#DUO92007, Sigma-Aldrich) for ligation and amplification according to the manufacturer's instructions. Finally, the cells were treated with 1 μg mL^-1 DAPI (#D9542, Sigma-Aldrich) to stain nuclei for further microscopy analysis. Images were acquired using a Zeiss Observer Z1 microscope with an 63× oil objective. Picture data were analysed by the ImageJ “analyze particles” macro to count PLA spots per cell. Ten pictures were counted for each condition per experiment. Statistical analysis was performed using Student's paired t test.

[8] = 90 minutes, fractionation, UPLC-MS
[9] = 24 hours, fractionation, UPLC-MS

## CC[C@H](C)[C@@H]1NC(=O)[C@H](CCC(N)=O)NC(=O)[C@H](CC(C)C)NC(=O)[C@H](Cc2c[nH]c3ccccc23)NC(=O)[C@H]([C@@H](C)O)NC(=O)[C@H](CC(=O)O)NC(=O)CNC(=O)[C@H](CC(C)C)NC(=O)[C@H](C)NC(=O)[C@H](CCCCN)NC(=O)[C@H](C)NC(=O)[C@H](Cc2ccccc2)NC(=O)[C@H](Cc2c[nH]cn2)NC(=O)[C@H](CC(=O)O)NC(=O)[C@@H](NC(=O)[C@@H](NC(=O)[C@H](CO)NC(C)=O)C(C)C)CCC(=O)NCCCC[C@@H](C(=O)N[C@@H](C)C(=O)N[C@@H](C)C(N)=O)NC1=O [4E] (Ac-SVEDHFAKALGDTWLQIKAA-NH2; lactam 3-18)
[1]
  Kd: 1200 nM
[2]; [8]
  Sub-cellular drug content, Cytoplasm, Measured concentration: < LLOQ
  Sub-cellular drug content, Cytoplasm, nMol: < LLOQ
  Sub-cellular drug content, Nuclear, Measured concentration: < LLOQ
  Sub-cellular drug content, Nuclear, nMol: < LLOQ
  Sub-cellular drug content, Cytoplasm, pMol.mg-1: < LLOQ
  Sub-cellular drug content, Nuclear, pMol.mg-1: < LLOQ
[2]; [9]
  Sub-cellular drug content, Cytoplasm, Measured concentration: < LLOQ
  Sub-cellular drug content, Cytoplasm, nMol: < LLOQ
  Sub-cellular drug content, Nuclear, Measured concentration: < LLOQ
  Sub-cellular drug content, Nuclear, nMol: < LLOQ
  Sub-cellular drug content, Cytoplasm, pMol.mg-1: < LLOQ
  Sub-cellular drug content, Nuclear, pMol.mg-1: < LLOQ
[2]; UPLC-MS, raw data replicate 1
  Cytoplasmic concentration of peptide: <LLOQ
  Nuclear concentration of peptide: <LLOQ
[2]; UPLC-MS, raw data replicate 2
  Cytoplasmic concentration of peptide: <LLOQ
  Nuclear concentration of peptide: <LLOQ
[2]; UPLC-MS, replicate 1
  Cytoplasmic concentration, raw data: <LLOQ
  Nuclear concentration, raw data: <LLOQ
[2]; UPLC-MS, replicate 2
  Cytoplasmic concentration, raw data: <LLOQ
  Nuclear concentration, raw data: <LLOQ
[2]; unlabelled peptide 25 µM, 90 min and 24 h, fractionation, UPLC-MS
  Detection in cytoplasmic and nuclear fractions: not detected in subcellular fractions
[2]; unlabelled peptide 25 µM, 90 min incubation, n = 2 biological replicates
  Intracellular concentration: < LLOQ
[2]; unlabelled peptide 25 µM, 24 hours incubation, N = 2 biological replicates
  Intracellular concentration: < LLOQ
[3]
  Competition with TEAD–VGL4 complex formation (pull-down): compete with TEAD–VGL4 complex formation
[4]
  Effect on wound closure: no effect
[5]
  Kd: 700 nM
[6]; raw data replicate 1
  Total cell number (% DMSO control): 98.8636 % DMSO control
[6]; raw data replicate 2
  Total cell number (% DMSO control): 123.588 % DMSO control
[6]; raw data replicate 3
  Total cell number (% DMSO control): 109.739 % DMSO control
[6]; raw data replicate 4
  Total cell number (% DMSO control): 95.1959 % DMSO control
[6]; raw data replicate 5
  Total cell number (% DMSO control): 66.1379 % DMSO control
[6]; raw data replicate 6
  Total cell number (% DMSO control): 63.0015 % DMSO control
[7]
  Effect on YAP–TEAD complexes (PLA): only shows a small change in PLA events
